Data from US8252781B2, “1,2-diazetidin-3-one derivatives and drugs containing same” (Kowa Company, Ltd., priority 2008, dated 2012).
Read-outs that look alike come from different tables or passages of the source.

Assays:
human 11β-HSD1 = target: T1, human 11β-HSD1 (Homo sapiens, UniProt P28845); experiment: Enzyme inhibitory activity, human 11β-HSD1 (lysate of stably expressing HEK293 cells, cortisol by competitive ELISA); assay type: biochemical; conditions: human 11β-HSD1, cell lysate, 37° C. for 1 hour, read-out: h HSD1 in vitro assay (IC50 uM)
T1 construct: The obtained PCR products of about 0.9 kbp, 1.2 kbp, and 0.9 kbp were subcloned into an expression vector pcDNA3.1+/Zeo; expressed in transfected cells
T1 sequence (P28845 whole entry): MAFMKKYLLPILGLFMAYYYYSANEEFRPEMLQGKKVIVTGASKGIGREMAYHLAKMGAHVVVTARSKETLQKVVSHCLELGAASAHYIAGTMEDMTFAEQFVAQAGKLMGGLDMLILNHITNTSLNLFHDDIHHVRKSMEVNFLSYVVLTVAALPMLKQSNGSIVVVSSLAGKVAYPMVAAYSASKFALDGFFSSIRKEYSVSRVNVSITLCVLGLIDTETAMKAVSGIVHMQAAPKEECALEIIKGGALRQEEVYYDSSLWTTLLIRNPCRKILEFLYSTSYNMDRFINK
Experimental: (§1) 1. Human 11β-HSD1-, Human 11β-HSD2- and Mouse 11β-HSD1-Gene Clonings and Establishment of Stably Expressing Cells
(§2) Human 11β-HSD1-, human 11β-HSD2-, and mouse 11β-HSD1-gene clonings were conducted using as a template a reverse transcription product of human-liver RNA, human-kidney RNA (CELL APPLICATIONS), and mouse-kidney RNA respectively, by means of PCR cloning with reference to nucleotide sequences of Genbank Accession Nos. NM_005525, NM_000196, and NM_008288. The obtained PCR products of about 0.9 kbp, 1.2 kbp, and 0.9 kbp were subcloned into an expression vector pcDNA3.1+/Zeo (Invitrogen).
(§3) Human 11β-HSD1- and human 11β-HSD2-expressing vectors were transfected into human kidney-derived cell line, HEK293 cells, using a transfection reagent, jet PEI (Funakoshi). Mouse 11β-HSD1 was transfected to Chinese hamster ovary-derived cell line, CHO-K1 cells. Selection was conducted with 200-400 μg/mL of zeocine (Invitrogen) to provide stably expressing-cell clones. The stably expressing cells were suspended in buffer solution A (20 mmol/L Tris-HCl, pH 7.4, 250 mmol/L sucrose, 1 mmol/L EGTA, 1 mmol/L EDTA, 1 mmol/L MgCl2), sonicated, and then stored at −80° C.
(§4) 2. Assay of Enzyme Inhibitory Activity
(§5) An enzymatic reaction was conducted using a polystyrene 96-well plate. Each well was added with 1 μL of a test agent dissolved in DMSO and then diluted (0.003 to 3 mmol/L), and further added with 10 μL of cell lysate diluted to a concentration of 0.1 mg/mL to 0.4 mg/mL. Next, 90 μL of buffer solution A containing substrate (100 nmol/L cortisone or cortisol) and coenzyme (400 μmol/L NADPH or NAD+) was added and the mixture was incubated at 37° C. for 1 hour. The enzymatic reaction was stopped by treating at 95° C. for 3 minutes. Cortisol that was present in the reaction solution was determined by a competitive ELISA shown below.
(§6) Anti-rabbit IgG antibody (Chemi-con) diluted to 2 μg/mL with carbonate buffer solution (pH 9.6) was added in 100 μL each to a 96-well immuno plate (Nunc) and immobilized by an incubation at 4° C. overnight. 50 μL of enzymatic reaction solution was put onto the plates, and further, anti-cortisol antibody (Cosmo Bio) and HRP-labeled cortisol (Cosmo Bio), diluted with buffer solution B (25 mmol/L Tris-HCl pH 7.4, 137 mmol/L NaCl, 2.68 mmol/L KCl), were added in 50 μL respectively and incubated at 4° C. overnight. After washed three times with buffer solution B containing 0.05% Tween 20, the plates were allowed to develop color by adding 100 μL of color reagent, TMB (Moss). The color reaction was stopped by 25 μL of 1 mol/L sulfuric acid and the absorbance was determined at 450 nm with a microplate reader (Molecular Device, VersaMax).
(§7) The values of human 11β-HSD1, human 11β-HSD2, and mouse 11β-HSD1 activities were subtracted from 100, and the resultant values were regarded as the respective 11β-HSD inhibition rates of example compounds. […] The comparison of human 11β-HSD1 and human 11β-HSD2 inhibiting activities is shown in Table 1, and the comparison of human 11β-HSD1 and mouse 11β-HSD1 inhibiting activities is shown in Table 2.

mouse 11β-HSD1 = target: T2, mouse 11β-HSD1 (Mus musculus, UniProt P50172); experiment: Enzyme inhibitory activity, mouse 11β-HSD1 (lysate of stably expressing CHO-K1 cells, cortisol by competitive ELISA); assay type: biochemical; conditions: Table 2; mouse 11β-HSD1, cell lysate, 37° C. for 1 hour; read-out: m HSD1 in vitro assay (IC50 uM)
T2 construct: The obtained PCR products of about 0.9 kbp, 1.2 kbp, and 0.9 kbp were subcloned into an expression vector pcDNA3.1+/Zeo; expressed in transfected cells
T2 sequence (P50172 whole entry): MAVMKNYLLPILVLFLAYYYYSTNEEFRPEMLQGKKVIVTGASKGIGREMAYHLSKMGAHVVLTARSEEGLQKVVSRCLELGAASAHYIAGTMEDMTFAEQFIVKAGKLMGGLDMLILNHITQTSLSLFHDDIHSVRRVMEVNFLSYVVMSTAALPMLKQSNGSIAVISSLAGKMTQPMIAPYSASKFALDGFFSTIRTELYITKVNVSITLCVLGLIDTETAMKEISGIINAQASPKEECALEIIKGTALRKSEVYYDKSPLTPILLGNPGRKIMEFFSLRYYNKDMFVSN
Experimental: as §1, §2, §3, §4, §5, §6, §7

Compound | IC50 (human 11β-HSD1; Table 2) | IC50 (mouse 11β-HSD1) | IC50 (human 11β-HSD1; Table 1)
CC1(C)C(=O)N(C2C3CC4CC(C3)CC2C4)N1Cc1cccc(Cl)c1 (stereo not shown) [Example 28, 1-(3-chlorobenzyl)-4,4-dimethyl-2-(adamantan-2-yl)-1,2-diazetidin-3-one] | 0.44 µM | 0.073 µM | –
CC1(C)C(=O)N(C2C3CC4CC(C3)CC2C4)N1Cc1cccc([N+](=O)[O-])c1 (stereo not shown) [Example 29, 4,4-dimethyl-1-(3-nitrobenzyl)-2-(adamantan-2-yl)-1,2-diazetidin-3-one] | 0.6 µM | 0.37 µM | –
CC1(C)C(=O)N(C2C3CC4CC(C3)CC2C4)N1Cc1ccc([N+](=O)[O-])cc1 (stereo not shown) [Example 31, 4,4-dimethyl-1-(4-nitrobenzyl)-2-(adamantan-2-yl)-1,2-diazetidin-3-one] | 0.96 µM | 0.3 µM | –
CC1(C)C(=O)N(C2C3CC4CC(C3)CC2C4)N1Cc1cccc(Br)c1 (stereo not shown) [Example 33, 1-(3-bromobenzyl)-4,4-dimethyl-2-(adamantan-2-yl)-1,2-diazetidin-3-one] | 0.38 µM | 0.086 µM | –
CC1(C)C(=O)N(C2C3CC4CC(C3)CC2C4)N1Cc1cccc(I)c1 (stereo not shown) [Example 35, 1-(3-iodobenzyl)-4,4-dimethyl-2-(adamantan-2-yl)-1,2-diazetidin-3-one] | 0.44 µM | 0.15 µM | –
CC1(C)C(=O)N(C2C3CC4CC(C3)CC2C4)N1Cc1ccc(C(F)(F)F)cc1 (stereo not shown) [Example 36, 4,4-dimethyl-2-(adamantan-2-yl)-1-[4-(trifluoromethyl)benzyl]-1,2-diazetidin-3-one] | 0.69 µM | 0.21 µM | –
CC1(C)C(=O)N(C2C3CC4CC(C3)CC2C4)N1Cc1cc(Cl)ccc1Cl (stereo not shown) [Example 44, 1-(2,5-dichlorobenzyl)-4,4-dimethyl-2-(adamantan-2-yl)-1,2-diazetidin-3-one] | 0.044 µM | 0.073 µM | –
CC1(C)C(=O)N(C2C3CC4CC(C3)CC2C4)N1Cc1ccc(F)cc1Cl (stereo not shown) [Example 45, 1-(2-chloro-4-fluorobenzyl)-4,4-dimethyl-2-(adamantan-2-yl)-1,2-diazetidin-3-one] | 0.079 µM | 0.14 µM | –
CC1(C)C(=O)N(C2C3CC4CC(C3)CC2C4)N1Cc1c(F)cccc1Cl (stereo not shown) [Example 46, 1-(2-chloro-6-fluorobenzyl)-4,4-dimethyl-2-(adamantan-2-yl)-1,2-diazetidin-3-one] | 0.23 µM | 0.45 µM | –
CC1(C)C(=O)N(C2C3CC4CC(C3)CC2C4)N1Cc1ccccc1-c1ccccc1 (stereo not shown) [Example 49, 1-(biphenyl-2-ylmethyl)-4,4-dimethyl-2-(adamantan-2-yl)-1,2-diazetidin-3-one] | – | 0.31 µM | 0.8 µM
CC1(C)C(=O)N(C2C3CC4CC(C3)CC2C4)N1Cc1ccc(Br)cc1 (stereo not shown) [Example 53, 1-(4-bromobenzyl)-4,4-dimethyl-2-(adamantan-2-yl)-1,2-diazetidin-3-one] | 0.35 µM | 0.06 µM | –
Cc1ccc(CN2N(C3C4CC5CC(C4)CC3C5)C(=O)C2(C)C)c(C)c1 (stereo not shown) [Example 55, 1-(2,4-dimethylbenzyl)-4,4-dimethyl-2-(adamantan-2-yl)-1,2-diazetidin-3-one] | 0.067 µM | 0.069 µM | –
Cc1ccc(C)c(CN2N(C3C4CC5CC(C4)CC3C5)C(=O)C2(C)C)c1 (stereo not shown) [Example 56, 1-(2,5-dimethylbenzyl)-4,4-dimethyl-2-(adamantan-2-yl)-1,2-diazetidin-3-one] | 0.054 µM | 0.052 µM | –
CC1(C)C(=O)N(C2C3CC4CC(C3)CC2C4)N1Cc1cccc2c1OCO2 (stereo not shown) [Example 61, 1-(1,3-benzodioxol-4-ylmethyl)-4,4-dimethyl-2-(adamantan-2-yl)-1,2-diazetidin-3-one] | 0.23 µM | 0.3 µM | –
CC1(C)C(=O)N(C2C3CC4CC(C3)CC2C4)N1Cc1ccc2ccccc2c1 (stereo not shown) [Example 64, 4,4-dimethyl-1-(naphthalen-2-ylmethyl)-2-(adamantan-2-yl)-1,2-diazetidin-3-one] | 0.6 µM | 0.041 µM | –
CC1(C)C(=O)N([C@H]2C3CC4CC2C[C@](O)(C4)C3)N1Cc1ccccc1Cl [Example 65, trans-1-(2-chlorobenzyl)-2-(5-hydroxyadamantan-2-yl)-4,4-dimethyl-1,2-diazetidin-3-one] | 0.5 µM | 0.47 µM | –
CC1(C)C(=O)N([C@H]2C3CC4CC2C[C@](O)(C4)C3)N1Cc1ccccc1C(F)(F)F [Example 66, trans-2-(5-hydroxyadamantan-2-yl)-4,4-dimethyl-1-[2-(trifluoromethyl)benzyl]-1,2-diazetidin-3-one] | – | 0.57 µM | 0.09 µM

Other lines, results leading:

IC50 (human 11β-HSD1; Table 2) | IC50 (mouse 11β-HSD1) | IC50 (human 11β-HSD1; Table 1) | Compound
0.03 µM | 0.094 µM | – | CC1(C)C(=O)N(C2C3CC4CC(C3)CC2C4)N1Cc1ccccc1Cl (stereo not shown) [Example 27, 1-(2-chlorobenzyl)-4,4-dimethyl-2-(adamantan-2-yl)-1,2-diazetidin-3-one]
0.047 µM | 0.1 µM | – | Cc1ccccc1CN1N(C2C3CC4CC(C3)CC2C4)C(=O)C1(C)C (stereo not shown) [Example 30, 4,4-dimethyl-1-(2-methylbenzyl)-2-(adamantan-2-yl)-1,2-diazetidin-3-one]
0.25 µM | 0.054 µM | – | Cc1cccc(CN2N(C3C4CC5CC(C4)CC3C5)C(=O)C2(C)C)c1 (stereo not shown) [Example 32, 4,4-dimethyl-1-(3-methylbenzyl)-2-(adamantan-2-yl)-1,2-diazetidin-3-one]
0.26 µM | 0.1 µM | – | CC1(C)C(=O)N(C2C3CC4CC(C3)CC2C4)N1Cc1ccccc1F (stereo not shown) [Example 38, 1-(2-fluorobenzyl)-4,4-dimethyl-2-(adamantan-2-yl)-1,2-diazetidin-3-one]
– | 0.24 µM | 0.025 µM | CC1(C)C(=O)N(C2C3CC4CC(C3)CC2C4)N1Cc1ccccc1C(F)(F)F (stereo not shown) [Example 42, 4,4-dimethyl-2-(adamantan-2-yl)-1-[2-(trifluoromethyl)benzyl]-1,2-diazetidin-3-one]
0.072 µM | 0.074 µM | – | CC1(C)C(=O)N(C2C3CC4CC(C3)CC2C4)N1Cc1cccc(Cl)c1Cl (stereo not shown) [Example 43, 1-(2,3-dichlorobenzyl)-4,4-dimethyl-2-(adamantan-2-yl)-1,2-diazetidin-3-one]
0.2 µM | 0.58 µM | – | CC1(C)C(=O)N(C2C3CC4CC(C3)CC2C4)N1Cc1ccccc1[N+](=O)[O-] (stereo not shown) [Example 47, 4,4-dimethyl-1-(2-nitrobenzyl)-2-(adamantan-2-yl)-1,2-diazetidin-3-one]
0.082 µM | 0.58 µM | – | COc1ccccc1CN1N(C2C3CC4CC(C3)CC2C4)C(=O)C1(C)C (stereo not shown) [Example 51, 1-(2-methoxybenzyl)-4,4-dimethyl-2-(adamantan-2-yl)-1,2-diazetidin-3-one]
0.3 µM | 0.036 µM | – | COc1cccc(CN2N(C3C4CC5CC(C4)CC3C5)C(=O)C2(C)C)c1 (stereo not shown) [Example 54, 1-(3-methoxybenzyl)-4,4-dimethyl-2-(adamantan-2-yl)-1,2-diazetidin-3-one]
0.026 µM | 0.061 µM | – | Cc1c(F)cccc1CN1N(C2C3CC4CC(C3)CC2C4)C(=O)C1(C)C (stereo not shown) [Example 58, 1-(3-fluoro-2-methylbenzyl)-4,4-dimethyl-2-(adamantan-2-yl)-1,2-diazetidin-3-one]
0.25 µM | 0.064 µM | – | CC1(C)C(=O)N(C2C3CC4CC(C3)CC2C4)N1Cc1cccc(Cl)c1F (stereo not shown) [Example 59, 1-(3-chloro-2-fluorobenzyl)-4,4-dimethyl-2-(adamantan-2-yl)-1,2-diazetidin-3-one]
0.015 µM | 0.41 µM | – | CC1(C)C(=O)N(C2C3CC4CC(C3)CC2C4)N1Cc1cccc2ccccc12 (stereo not shown) [Example 63, 4,4-dimethyl-1-(naphthalen-1-ylmethyl)-2-(adamantan-2-yl)-1,2-diazetidin-3-one]
